Consider 2 compounds from patent US9777008B2, “PRMT5 inhibitors and uses thereof” (Epizyme, Inc., priority 2012, dated 2017).

The assay concerns the target PRMT5/MEP50 (Homo sapiens (Human), UniProt O14744). In words: PRMT5 Biochemical Assay (PRMT5/MEP50 enzyme assay on peptide substrate, 3H-SAM Flashplate). Summed up: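 FLAG-PRMT5/His-MEP50 from Sf9 cells, 4 nM, with 40 nM biotinylated H4(1-15) peptide and 75 nM 3H-SAM in 20 mM Bicine pH 7.6, 1% DMSO; compound preincubated 30 min at 25 °C. Stopped with 600 uM cold SAM; 3H-peptide captured on streptavidin Flashplate, counted; % inhibition versus DMSO and 100 uM SAH controls, IC50 by 3- or 4-parameter fit.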

Sequence of PRMT5/MEP50 (O14744 other isoform, or with tags, fused parts or gaps): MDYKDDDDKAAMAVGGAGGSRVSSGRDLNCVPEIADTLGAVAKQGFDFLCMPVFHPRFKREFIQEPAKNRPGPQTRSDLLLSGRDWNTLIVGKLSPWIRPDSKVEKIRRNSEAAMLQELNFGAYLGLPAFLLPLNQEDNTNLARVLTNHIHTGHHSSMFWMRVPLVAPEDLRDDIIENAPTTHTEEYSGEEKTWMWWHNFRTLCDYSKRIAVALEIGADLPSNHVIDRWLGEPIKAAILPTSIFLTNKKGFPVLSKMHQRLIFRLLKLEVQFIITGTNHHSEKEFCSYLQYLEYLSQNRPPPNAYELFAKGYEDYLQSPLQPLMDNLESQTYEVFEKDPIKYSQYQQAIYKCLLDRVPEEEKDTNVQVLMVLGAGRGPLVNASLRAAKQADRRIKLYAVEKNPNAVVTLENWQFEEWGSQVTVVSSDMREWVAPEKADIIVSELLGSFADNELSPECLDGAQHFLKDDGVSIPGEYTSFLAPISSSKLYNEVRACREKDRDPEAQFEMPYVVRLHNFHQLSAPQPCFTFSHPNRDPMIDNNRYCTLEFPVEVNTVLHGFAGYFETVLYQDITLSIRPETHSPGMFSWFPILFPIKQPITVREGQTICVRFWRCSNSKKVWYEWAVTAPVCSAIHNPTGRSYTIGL
Sequence of PRMT5/MEP50 (Q9BQA1 other isoform, or with tags, fused parts or gaps partner): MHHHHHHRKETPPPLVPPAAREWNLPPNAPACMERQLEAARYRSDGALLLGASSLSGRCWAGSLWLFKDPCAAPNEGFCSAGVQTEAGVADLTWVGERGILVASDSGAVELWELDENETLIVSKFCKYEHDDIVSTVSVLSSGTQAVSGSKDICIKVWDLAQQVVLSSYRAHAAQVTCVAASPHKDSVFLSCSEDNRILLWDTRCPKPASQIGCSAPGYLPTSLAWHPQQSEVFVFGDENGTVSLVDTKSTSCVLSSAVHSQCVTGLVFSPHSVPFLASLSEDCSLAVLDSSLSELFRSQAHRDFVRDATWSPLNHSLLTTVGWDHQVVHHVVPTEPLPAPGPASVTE

As for “N-(3-(3-(3,4-dihydroisoquinolin-2(1H)-yl)-2-hydroxypropoxy)phenyl)pyrimidine-5-carboxamide [Compound 145]”, the IC50 was in the range of 0.101 to 1 µM.
For `OC(COc1cccc(-c2ccc3cn[nH]c3c2)c1)CN1CCc2ccccc2C1` (centres unmarked) [Compound 58, 1-(3-(1H-indazol-6-yl)phenoxy)-3-(3,4-dihydroisoquinolin-2(1H)-yl)propan-2-ol], the IC50 fell in the range of 0.101 to 1 µM.
